From US20240059689A1, “PURINE DERIVATIVES AS ANTICANCER AGENTS” (Tango Therapeutics, Inc., priority 2021, published 2024)
Like-named read-outs stand apart in the source and are kept apart here.

Tests used:
USP1-UAF1 = USP1-UAF1 (Homo sapiens, UniProt O94782); experiment: Ubiquitin Rhodamine assay of USP1-UAF1 activity; format: biochemical
Experimental: Certain compounds of the disclosure were assessed for USP1-UAF1 activity in a Ubiquitin Rhodamine assay as described in Biology Example 1.

MDA-MB-436 = experiment: Viability assay, BRCA1 mutant cell line MDA-MB-436; format: cell-based; conditions: BRCA1 mutant MDA-MB-436, read-out: MDA-MB-436 rel IC50
Description: (§1) Table 1 also indicates IC50 values in a viability assay for a non-isogenic pair of BRCA1 mutant (column 5-MDA-MB-436) and BRCA1 WT (column 6—HCC1954) cell lines. These values indicate the effect of treatment with compound on cell survival.

HCC1954 = experiment: Viability assay, BRCA1 WT cell line HCC1954; format: cell-based; conditions: read-out: HCC1954 rel IC50
Description: as §1

monoubiquitinated PCNA = experiment: AlphaLISA assay measuring monoubiquitinated PCNA in MDA-MB-436; format: cell-based; conditions: read-out: Alpha Lisa IC50
Description: Table 1 also indicates IC50 values for exemplary compounds in an AlphaLISA assay measuring monoubiquitinated PCNA in a BRCA1 mutant cell line (MDA-MB-436; column 7).

[1] = Homo sapiens, MDA-MB-436, viability
[2] = Homo sapiens, HCC1954, viability
[3] = Homo sapiens, MDA-MB-436, monoubiquitinated PCNA

USP1-UAF1, sequence (O94782 whole entry): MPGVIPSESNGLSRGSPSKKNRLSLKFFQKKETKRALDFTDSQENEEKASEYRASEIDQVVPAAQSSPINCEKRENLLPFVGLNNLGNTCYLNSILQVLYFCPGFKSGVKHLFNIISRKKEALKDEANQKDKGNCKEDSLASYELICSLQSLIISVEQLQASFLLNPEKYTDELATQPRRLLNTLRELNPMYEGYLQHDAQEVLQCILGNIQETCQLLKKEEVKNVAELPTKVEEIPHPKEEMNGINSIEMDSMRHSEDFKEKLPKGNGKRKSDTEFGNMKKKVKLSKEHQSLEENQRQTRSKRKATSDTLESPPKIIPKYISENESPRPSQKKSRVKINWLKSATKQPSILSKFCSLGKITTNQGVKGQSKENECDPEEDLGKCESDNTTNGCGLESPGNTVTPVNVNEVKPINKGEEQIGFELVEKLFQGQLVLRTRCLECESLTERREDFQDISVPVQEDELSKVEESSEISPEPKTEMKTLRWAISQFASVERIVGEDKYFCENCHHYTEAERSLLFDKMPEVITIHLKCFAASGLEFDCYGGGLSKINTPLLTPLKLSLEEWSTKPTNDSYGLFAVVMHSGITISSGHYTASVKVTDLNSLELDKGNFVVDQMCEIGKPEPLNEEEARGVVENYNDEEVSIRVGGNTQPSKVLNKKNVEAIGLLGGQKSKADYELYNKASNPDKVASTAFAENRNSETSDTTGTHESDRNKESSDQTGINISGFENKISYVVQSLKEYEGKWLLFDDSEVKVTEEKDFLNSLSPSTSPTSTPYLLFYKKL
USP1-UAF1, sequence (Q8TAF3 whole entry partner): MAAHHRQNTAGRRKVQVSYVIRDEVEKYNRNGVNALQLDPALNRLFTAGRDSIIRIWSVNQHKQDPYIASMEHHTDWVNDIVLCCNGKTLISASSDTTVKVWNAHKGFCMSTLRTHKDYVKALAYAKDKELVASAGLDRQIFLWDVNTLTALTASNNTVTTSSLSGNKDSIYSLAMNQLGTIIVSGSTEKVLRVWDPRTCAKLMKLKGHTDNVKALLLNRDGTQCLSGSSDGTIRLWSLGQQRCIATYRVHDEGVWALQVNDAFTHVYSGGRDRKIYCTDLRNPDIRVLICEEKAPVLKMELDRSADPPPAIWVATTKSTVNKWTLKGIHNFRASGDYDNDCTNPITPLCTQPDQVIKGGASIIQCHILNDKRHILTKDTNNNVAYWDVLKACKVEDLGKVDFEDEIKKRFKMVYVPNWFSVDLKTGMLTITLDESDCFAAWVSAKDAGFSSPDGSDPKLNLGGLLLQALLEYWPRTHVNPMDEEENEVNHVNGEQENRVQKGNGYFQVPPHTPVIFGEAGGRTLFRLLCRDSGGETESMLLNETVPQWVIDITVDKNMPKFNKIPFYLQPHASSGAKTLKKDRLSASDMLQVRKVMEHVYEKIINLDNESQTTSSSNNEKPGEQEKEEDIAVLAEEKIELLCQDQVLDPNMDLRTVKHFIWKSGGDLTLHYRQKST

Row | IC50 (USP1-UAF1) | IC50 (MDA-MB-436; [1]) | IC50 (HCC1954; [2]) | IC50 (monoubiquitinated PCNA; [3]) | IC50 (MDA-MB-436; viability) | IC50 (HCC1954; viability) | IC50 (monoubiquitinated PCNA; monoubiquitinated PCNA) | Compound
1 | 100 to 10000 nM | 100 to 250 nM | ≥ 10000 nM | 100 to 250 nM |  |  |  | COc1ncnc(C2CC2)c1-c1ncc2c(n1)n(Cc1ccc(-c3nc(C(F)(F)F)cn3C)c(C)c1)c(=N)n2CC(F)(F)F [Example T-107, 2-(4-cyclopropyl-6-methoxy-pyrimidin-5-yl)-9-[[3-methyl-4-[1-methyl-4-(trifluoromethyl)imidazol-2-yl]phenyl]methyl]-7-(2,2,2-trifluoroethyl)purin-8-imine]
2 | 30 to 100 nM | 100 to 250 nM | ≥ 10000 nM | 100 to 250 nM |  |  |  | COc1nccc(C#N)c1-c1ncc2c(n1)n(Cc1ccc(-c3nc(C(F)(F)F)cn3C)cc1)c(=N)n2C [Example T-008]
3 | < 30 nM | < 100 nM | ≥ 10000 nM | < 100 nM |  |  |  | CC(C)c1ccccc1-c1ncc2c(n1)n(Cc1ccc(-c3nc(C(F)(F)F)cn3C)cc1F)c(=N)n2C [Example A-29, 9-(2-fluoro-4-(1-methyl-4-(trifluoromethyl)-1H-imidazol-2-yl)benzyl)-2-(2-isopropylphenyl)-7-methyl-7,9-dihydro-8H-purin-8-imine]
4 | < 30 nM | 100 to 250 nM | 250 to 10000 nM | 100 to 250 nM |  |  |  | CC(C)c1ccccc1-c1nc(C(F)(F)F)c2c(n1)n(Cc1ccc(-c3nc(C(F)(F)F)cn3C)cc1)c(=N)n2C [Example T-084]
5 | 30 to 100 nM | 250 to 10000 nM | 250 to 10000 nM | 250 to 10000 nM |  |  |  | Cn1cc(C(F)(F)F)nc1-c1ccc(Cn2c(=N)n(C)c3cnc(-c4ccc(F)cc4OC(F)F)nc32)cc1 [Example T-001, 2-[2-(difluoromethoxy)-4-fluoro-phenyl]-7-methyl-9-[[4-[1-methyl-4-(trifluoromethyl)imidazol-2-yl]phenyl]methyl]purin-8-imine]
6 | 100 to 10000 nM | 100 to 250 nM | ≥ 10000 nM | 250 to 10000 nM |  |  |  | COc1nc(C)nc(C2CC2)c1-c1ncc2c(n1)n(Cc1ccc(-c3nc(C(F)(F)F)cn3C)cc1)c(=N)n2CC(F)(F)F [Example T-102, 2-(4-cyclopropyl-6-methoxy-2-methyl-pyrimidin-5-yl)-9-[[4-[1-methyl-4-(trifluoromethyl)imidazol-2-yl]phenyl]methyl]-7-(2,2,2-trifluoroethyl)purin-8-imine]
7 | 30 to 100 nM | 100 to 250 nM | ≥ 10000 nM | 100 to 250 nM |  |  |  | COc1ccnc(C2CC2)c1-c1ncc2c(n1)n(Cc1ccc(-n3nc(C(F)(F)F)cc3OC)cc1)c(=N)n2CC(F)(F)F [Example T-136, 2-(2-cyclopropyl-4-methoxy-3-pyridyl)-9-[[4-[5-methoxy-3-(trifluoromethyl)pyrazol-1-yl]phenyl]methyl]-7-(2,2,2-trifluoroethyl)purin-8-imine]
8 | 30 to 100 nM | 100 to 250 nM | ≥ 10000 nM | 100 to 250 nM |  |  |  | COc1ncnc(C2CC2)c1-c1ncc2c(n1)n(Cc1ccc(-c3nc(C(F)(F)F)cn3CC(F)F)cc1)c(=N)n2C [Example T-069]
9 | < 30 nM | < 100 nM | ≥ 10000 nM | < 100 nM |  |  |  | COCCn1c(=N)n(Cc2ccc(-c3nc(C(F)(F)F)cn3C)cc2)c2nc(-c3ccccc3C(C)C)ncc21 [Example T-016]
10 | 100 to 10000 nM | 250 to 10000 nM | ≥ 10000 nM | 250 to 10000 nM |  |  |  | COc1ncccc1-c1ncc2c(n1)n(Cc1ccc(-c3nc(C(F)(F)F)cn3C(C)C)cc1)c(=N)n2C [Example T-037]
11 | 30 to 100 nM | 250 to 10000 nM | ≥ 10000 nM | 250 to 10000 nM |  |  |  | Cc1nc(-c2ccccc2Cl)nc2c1n(C)c(=N)n2Cc1ccc(-c2nc(C(F)(F)F)cn2C)cc1 (single isomer, unassigned) [Example A-15a, 2-(2-chlorophenyl)-6,7-dimethyl-9-(4-(1-methyl-4-(trifluoromethyl)-1H-imidazol-2-yl)benzyl)-7,9-dihydro-8H-purin-8-imine]
12 | 100 to 10000 nM | 100 to 250 nM | ≥ 10000 nM | 100 to 250 nM |  |  |  | COc1ncnc(C2CC2)c1-c1ncc2c(n1)n([C@@H](C)c1ccc(-c3nc(C(F)(F)F)cn3C)cc1)c(=N)n2C [Example T-142, 2-(4-cyclopropyl-6-methoxy-pyrimidin-5-yl)-7-methyl-9-[(1S)-1-[4-[1-methyl-4-(trifluoromethyl)imidazol-2-yl]phenyl]ethyl]purin-8-imine]
13 | < 30 nM | 250 to 10000 nM | ≥ 10000 nM | 100 to 250 nM |  |  |  | COc1cc(Cn2c(=N)n(C)c3cnc(-c4ccccc4C(C)C)nc32)ccc1-c1nc(C(F)(F)F)cn1C [Example A-37, 2-(2-isopropylphenyl)-9-(3-methoxy-4-(1-methyl-4-(trifluoromethyl)-1H-imidazol-2-yl)benzyl)-7-methyl-7,9-dihydro-8H-purin-8-imine]
14 | 100 to 10000 nM | 250 to 10000 nM | 250 to 10000 nM | 250 to 10000 nM |  |  |  | CC(C)c1ccccc1-c1ncc2c(n1)n(Cc1ccc(-c3ncc(C(F)(F)F)n3C)cc1)c(=N)n2C [Example A-1, 2-(2-isopropylphenyl)-7-methyl-9-(4-(J-methyl-5-(trifluoromethyl)-1H-imidazol-2-yl)benzyl)-7H-purin-8(9H)-imine]
15 | < 30 nM | < 100 nM | 250 to 10000 nM | < 100 nM |  |  |  | C=C(C)c1c(F)cccc1-c1nc(C)c2c(n1)n(Cc1ccc(-c3nc(C(F)(F)F)cn3C)cc1)c(=N)n2C [Example A-31, 2-(3-fluoro-2-(prop-1-en-2-yl)phenyl)-6,7-dimethyl-9-(4-(1-methyl-4-(trifluoromethyl)-1H-imidazol-2-yl)benzyl)-7,9-dihydro-8H-purin-8-imine]
16 | < 30 nM |  |  |  | < 100 nM | 250 to 10000 nM | < 100 nM | CC(C)c1ccccc1-c1ncc2c(n1)n(C(C)c1ccc(-c3nc(Cl)cn3C)cc1)c(=N)n2C (single isomer, unassigned) [Example A-9d, 9-(1-(4-(4-chloro-1-methyl-1H-imidazol-2-yl)phenyl)ethyl)-2-(2-isopropylphenyl)-7-methyl-7,9-dihydro-8H-purin-8-imine]
17 | 100 to 10000 nM | 250 to 10000 nM | ≥ 10000 nM | 250 to 10000 nM |  |  |  | COc1ncccc1-c1ncc2c(n1)n(Cc1ccc(-c3nc(C(F)(F)F)cn3C)cc1)c(=N)n2C [Example T-090]
18 | 30 to 100 nM | < 100 nM | ≥ 10000 nM | < 100 nM |  |  |  | CC(C)c1ccccc1-c1ncc2c(n1)n(Cc1ccc(-c3nc(C(F)(F)F)cn3C)cc1)c(=N)n2CC(F)(F)F [Example T-054]
19 | 30 to 100 nM | 100 to 250 nM | ≥ 10000 nM | 100 to 250 nM |  |  |  | Cn1cc(C(F)(F)F)nc1-c1ccc(Cn2c(=N)n(C)c3cnc(-c4c(C5CC5)ncnc4C(F)(F)F)nc32)cc1 [Example T-103, 2-(4-cyclopropyl-6-(trifluoromethyl)pyrimidin-5-yl)-7-methyl-9-(4-(1-methyl-4-(trifluoromethyl)-1H-imidazol-2-yl)benzyl)-7H-purin-8(9H)-imine]
20 | 30 to 100 nM | 100 to 250 nM | 250 to 10000 nM | 100 to 250 nM |  |  |  | COc1nsc(OC)c1-c1ncc2c(n1)n(Cc1ccc(-c3nc(C(F)(F)F)cn3C)cc1)c(=N)n2C [Example T-052]
21 | < 30 nM | 100 to 250 nM | ≥ 10000 nM | < 100 nM |  |  |  | CC(C)c1ccccc1-c1ncc2c(n1)n(Cc1ccc(-c3nc(C(F)(F)F)cn3C)cc1O)c(=N)n2C [Example T-081]
